Literature values, collected in patent publication US6542858B1, “Pharmacokinetic-based drug design tool and method” (Lion Bioscience AG, priority 1998, dated 2003).

Columns and labels:
[1] = Plasma Kinetics; mass model parameter

in vivo biotransformation: no in vivo biotransformation | absorption (in vivo): poorly absorbed | k21 [1]: 0.670
SMILES: Nc1nc2c(ncn2COC(CO)CO)c(=O)[nH]1.[Na] [Gancyclovir, 9-(1,3-dihydroxy-2-propoxymethyl)guanine, monosodium salt]
